Measurements taken from PubChem BioAssay AID1259408 (Genetic Toxicology Data Bank (GENE-TOX), 2018).
Calls of active or inactive are those of the source. No rule for the calls is given here.

Test system: GENE-TOX genotoxicity assays, various organisms and cells
Test: GENE-TOX mutagenicity studies
Conditions: for call: Assay Type: In vivo carcinogenicity studies
[1] = Species/Cell Type: Mammalian polychromatic erythrocytes, Assay Type: Micronucleus test, chromosome aberrations, Assay Code: MNTT, Evaluation Type: Evaluation B (Post-1980)
[2] = Species/Cell Type: Salmonella typhimurium (one or more of the five standard strains: TA98, TA100, TA1535, TA1537, and TA1538), Assay Type: Histidine reverse gene mutation, Ames assay, Assay Code: SAL+, Evaluation Type: Evaluation A (Pre-1980)

Structure (SMILES): COc1ccc(C[C@H](N)C(=O)N[C@H]2[C@@H](O)[C@H](n3cnc4c(N(C)C)ncnc43)O[C@@H]2CO)cc1
- mutagenic call (Species/Cell Type: Escherichia coli polA (W3110 vs P3478), Assay Type: Rec-assay, DNA effects (bacterial DNA repair), Assay Code: RE2+, Evaluation Type: Evaluation A (Pre-1980)): active; positive
- mutagenic call (Species/Cell Type: Escherichia coli polA (W3119 vs P3478), Assay Type: Rec-assay, DNA effects (bacterial DNA repair), Assay Code: RE1-, Evaluation Type: Evaluation A (Pre-1980)): inactive; negative
- mutagenic call (Species/Cell Type: Glycine max (soybean), Assay Type: Gene mutation, Assay Code: GLMT, Evaluation Type: Evaluation A (Pre-1980)): no conclusion
- mutagenic call (Species/Cell Type: Rodents, Sex: Male, Assay Type: Dominant lethal test, Assay Code: DLT-, Evaluation Type: Evaluation A (Pre-1980)): inactive; negative

Structure (SMILES): CC(C)Nc1cccc2c1C(=O)c1ccccc1C2=O
- mutagenic call (Species/Cell Type: Salmonella typhimurium (one or more of the five standard strains: TA98, TA100, TA1535, TA1537, and TA1538), Assay Type: Histidine reverse gene mutation, Ames assay, Assay Code: SAL+*, Activation: With metabolic activation, Evaluation Type: Evaluation A (Pre-1980)): active; positive

Structure (SMILES): Cc1ccc(Cl)cc1N
- mutagenic call (Species/Cell Type: Mouse, Sex: Male, Assay Type: Sperm morphology, Assay Code: SPI-, Evaluation Type: Evaluation A (Pre-1980)): inactive; negative
- call (Species/Cell Type: Nonhuman, Assay Code: CCG+L, Evaluation Type: Evaluation A (Pre-1980)): active; positive

Structure (SMILES): Cn1c(CCCC(=O)O)nc2cc(N(CCCl)CCCl)ccc21
- mutagenic call (Species/Cell Type: Nonhuman, Assay Type: Sister-chromatid exchange (SCE) in vitro, Assay Code: SC2+D, Dose Response: With dose response, Evaluation Type: Evaluation B (Post-1980)): active; positive

Structure (SMILES): O=C(O)C(F)(F)F
- mutagenic call (Species/Cell Type: Salmonella typhimurium (one or more of the five standard strains: TA98, TA100, TA1535, TA1537, and TA1538), Assay Type: Histidine reverse gene mutation, Ames assay, Assay Code: SALT, Evaluation Type: Evaluation A (Pre-1980)): no conclusion

Structure (SMILES): [Cl][Mo]([Cl])([Cl])([Cl])[Cl]
- mutagenic call (Species/Cell Type: Bacillus subtilis (H17 vs M45), Assay Type: Rec-assay, spot test, DNA effects (bacterial DNA repair), Assay Code: REW-, Evaluation Type: Evaluation A (Pre-1980)): inactive; negative

Structure (SMILES): OCc1c2ccccc2c(CO)c2c1ccc1ccccc12
- mutagenic call (Species/Cell Type: Chinese hamster lung (V79) cells, Assay Type: Forward gene mutation at the HPRT or ouabain locus, Assay Code: V79-*, Activation: With metabolic activation, Evaluation Type: Evaluation A (Pre-1980)): inactive; negative
- call (Species/Cell Type: Nonhuman, Assay Code: CCGT, Evaluation Type: Evaluation A (Pre-1980)): no conclusion

Structure (SMILES): CCCCNCC
- mutagenic call (Species/Cell Type: Fischer rat embryo (RLV/1706) cells, Assay Type: Cell transformation, viral enhanced, Assay Code: CTR-, Evaluation Type: Evaluation A (Pre-1980)): inactive; negative

Structure (SMILES): COc1ccc(C(=O)N2c3ccccc3Cc3ccccc32)cc1
- mutagenic call (Species/Cell Type: Human, Sex: Male, Assay Type: Sperm morphology, Assay Code: SPH+, Evaluation Type: Evaluation A (Pre-1980)): active; positive

Structure (SMILES): CCOC(=O)/C=C(C)/C=C/C=C(C)/C=C/c1c(C)cc(OC)c(C)c1C
- mutagenic call (Species/Cell Type: Human, Assay Type: Sister-chromatid exchange (SCE) in vitro, Assay Code: SC1+D, Dose Response: With dose response, Evaluation Type: Evaluation A (Pre-1980)): active; positive
- mutagenic call [1]: no conclusion
- mutagenic call (Species/Cell Type: Nonhuman, Assay Type: Sister-chromatid exchange (SCE) in vitro, Assay Code: SC2T, Evaluation Type: Evaluation B (Post-1980)): no conclusion

Structure (SMILES): c1ccc2c(c1)Nc1ccccc1S2
- mutagenic call (Species/Cell Type: Syrian hamster embryo (SA7/SHE) cells, Assay Type: Cell transformation, viral enhanced, Assay Code: CT7+, Evaluation Type: Evaluation A (Pre-1980)): active; positive

Structure (SMILES): CCCCCCN(N=O)C(N)=O
- mutagenic call [2]: active; positive

Structure (SMILES): NC(=O)/C=C/c1ccc([N+](=O)[O-])o1
- mutagenic call (Species/Cell Type: Human diploid fibroblasts, Assay Type: Unscheduled DNA synthesis (UDS) in vitro, DNA effects, Assay Code: UDH+, Evaluation Type: Evaluation A (Pre-1980)): active; positive
- mutagenic call [2]: active; positive

Structure (SMILES): NS(=O)(=O)c1ccc(C(=O)O)cc1
- mutagenic call [1]: no conclusion

Structure (SMILES): CN[C@@H](C)Cc1ccccc1
- mutagenic call (Species/Cell Type: Drosophila melanogaster, Assay Type: Sex-linked recessive lethal gene mutation, Assay Code: SRLT, Evaluation Type: Evaluation A (Pre-1980)): no conclusion

Structure (SMILES): O=Cc1ccccc1[N+](=O)[O-]
- mutagenic call [2]: active; positive

Structure (SMILES): O=C(CCNNC(=O)c1ccncc1)NCc1ccccc1
- mutagenic call (Species/Cell Type: Nonhuman, Assay Type: Sister-chromatid exchange (SCE) in vivo, Assay Code: SC3+, Evaluation Type: Evaluation B (Post-1980)): active; positive
- mutagenic call [2]: active; positive

Structure (SMILES): C[C@@H]1Cc2c(Cl)cc(C(=O)NC(Cc3ccccc3)C(=O)O)c(O)c2C(=O)O1 (some centres undefined)
- mutagenic call (Species/Cell Type: Nonhuman, Assay Type: Sister-chromatid exchange (SCE) in vivo, Assay Code: SC3-, Evaluation Type: Evaluation B (Post-1980)): inactive; negative

Structure (SMILES): CCCCCCCC/C=C/CCCCCCCC(=O)OCCOCC(OCCO)C1OCC(OCCO)C1OCCO (centres undefined)
- mutagenic call (Species/Cell Type: Human lymphocytes, Assay Type: Sister-chromatid exchange (SCE) in vitro, Assay Code: SCLT, Evaluation Type: Evaluation B (Post-1980)): no conclusion
- mutagenic call (Species/Cell Type: Human, Assay Type: Sister-chromatid exchange (SCE) in vitro, Assay Code: SC1T, Evaluation Type: Evaluation B (Post-1980)): no conclusion
